Results taken from paper PMC5964550 (Contrast Media & Molecular Imaging, 2018).

What was measured:
OATP1B3 (SLCO1B3) = system: OATP1B3 (SLCO1B3); set-up: method as in earlier work; conditions: in vitro; cited from earlier work
[1] = system: P-gp at the canalicular membrane; set-up: method as in PMID 12576431; conditions: humans; cited from earlier work
OATP1B1 (SLCO1B1) = system: OATP1B1 (SLCO1B1); set-up: method as in earlier work; conditions: in vitro; cited from earlier work
OATP2B1 (SLCO2B1) = system: OATP2B1 (SLCO2B1); set-up: method as in earlier work; conditions: in vitro; cited from earlier work
[2] = cited from earlier work
P-gp = conditions: mice, cited from earlier work
[3] = system: cytochrome P450 2D6 (CYP2D6); conditions: cited from earlier work
human P-gp = system: human P-gp; set-up: method as in PMID 17962372, PMID 15502009; conditions: cited from earlier work
rodent P-gp = system: rodent P-gp; set-up: method as in PMID 17962372, PMID 15502009; conditions: cited from earlier work
[4] = rat, iv
[5] = [11C]metoclopramide plasma kinetics and metabolism in rats (radio-HPLC); format: in vivo; conditions: rat
Excerpt: […]. […] […].

**Q.** With `COc1cc2c(cc1OC)CN(CCc1ccc(NC(=O)c3cc(OC)c(OC)cc3NC(=O)c3cnc4ccccc4c3)cc1)CC2` [tariquidar] as the compound, how does the “inhibitor of OATP1B3” value (OATP1B3 (SLCO1B3)) read?
**A.** Its value is “not”.

**Q.** And the “effect on liver exposure to [99mTc]sestamibi” value [1]?
**A.** Its value is “enhance”.

**Q.** And the “inhibitor of OATP1B1” value (OATP1B1 (SLCO1B1))?
**A.** Its value is “not”.

**Q.** And the “inhibitor of OATP2B1” value (OATP2B1 (SLCO2B1))?
**A.** The value was “inhibitor”.

**Q.** With `CCN(CC)CCNC(=O)c1cc(Cl)c(N)cc1OC` [metoclopramide] as the compound, how does the “excreted unchanged in urine” value ([2]; after intravenous administration) read?
**A.** The value was 19%.

**Q.** And the “lower plasma clearance in hepatic impairment (liver cirrhosis)” value ([2]; liver cirrhosis)?
**A.** The value was 50%.

**Q.** And the “influence of P-gp deficiency on metoclopramide PK” value (P-gp; 3 mg/kg, over 5 hours)?
**A.** Its value is “no influence”.

**Q.** What about the “effect of P-gp deficiency on brain distribution” value (P-gp) of the same compound?
**A.** Its value is “enhance”.

**Q.** And the “impact of P-gp deficiency on plasma pharmacokinetics” value (P-gp)?
**A.** Its value is “no or negligible impact”.

**Q.** What about the “substrate of CYP2D6” value [3] of the same compound?
**A.** The value was “substrate”.

**Q.** And the “substrate of human P-gp” value (human P-gp)?
**A.** The value was “substrate”.

**Q.** What about the “substrate of rodent P-gp” value (rodent P-gp) of the same compound?
**A.** Its value is “substrate”.

**Q.** For `CCN(CC)CCNC(=O)c1cc(Cl)c(N)cc1O[11CH3]` [[^11C]metoclopramide], which “AUCliver (area under the time-activity curve of radioactivity in the liver, 0 to 30 min)” value ([4]; male, Wistar, in vivo, 3 mg/kg) is on record?
**A.** Its value is 42.9 ± 13.8 SUV·min.

**Q.** What about the “effect of P-gp inhibition on liver AUC” value ([4]; not told, 8 mg/kg) of the same compound?
**A.** The value was “did not significantly impact”.

**Q.** What about the “increase in AUCplasma, pharmacologic dose vs tracer dose” value ([5]; in vivo) of the same compound?
**A.** The value was 2.1 fold.

**Q.** What about the “proportion of parent [11C]metoclopramide in plasma, pharmacologic dose vs tracer dose” value ([5]; metoclopramide 3 mg/kg, calculated from ref 14) of the same compound?
**A.** The value was “higher”.

**Q.** And the “impact of P-gp inhibition on plasma clearance and metabolism” value ([5]; not told, 8 mg/kg)?
**A.** Its value is “did not impact”.
